Reference: US8796416B1, “ACTH prophylactic treatment of renal disorders” (Questcor Pharmaceuticals, Inc, priority 2010, dated 2014)

System: melanocortin receptor
Experiment: Melanocortin receptor modulation by ACTH1-39 (applicants' finding, no method given)

How did the melanocortin receptor modulation turn out when “H-Ser-Tyr-Ser-Met-Glu-His-Phe-Arg-Trp-Gly-Lys-Pro-Val-Gly-Lys-Lys-Arg-Arg-Pro-Val-Lys-Val-Tyr-Pro-Asp-Gly-Ala-Glu-Asp-Gln-Leu-Ala-Glu-Ala-Phe-Pro-Leu-Glu-Phe-OH (H-SYSMEHFRWGKPVGKKRRPVKVYPDGAEDQLAEAFPLEF-OH) [ACTH1-39]” was run?
Its melanocortin receptor modulation is “pan-melanocortin receptor modulator”.
